According to publication PMC11568265, “Exploring peptide dendrimers for intestinal lymphatic targeting: formulation and evaluation of peptide dendrimer conjugated liposomes for enhancing the oral bioavailability of Asenapine maleate” (Scientific Reports, 2024):
Counter-ions that a name gives are not always drawn. Marks after values point to notes of the source that are not given here.

What was measured:
[1] = Oral pharmacokinetic study in rats; assay type: in vivo, Sprague–Dawley (SD) rats; details: SD rats, 5 mg/kg ASPM orally, n = 6
Method: (§1) Preclinical ex vivo and in vivo studies were conducted on male Sprague–Dawley (SD) rats (200–250 g). The SD rats were bred at the Central Animal Research Facility, Manipal Academy of Higher Education, Manipal, India. The SD rats were exposed to a light–dark cycle (12 h each) and had free access to food and water. The rats used in the study were housed in cages at 25 ± 2 °C. All the experimental procedures and animal handling were carried out following the CCSEA (Committee for Control and Supervision of Experiments on Animals, Ministry of Fisheries, Animal Husbandry and Dairying, Government of India) guidelines, and in accordance with ARRIVE guidelines as well. All the animal experimental protocols were approved by the Institutional Animal Ethical Committee, Kasturba Medical College, MAHE, Manipal (Approval No: IAEC/KMC/49/2020). An attempt was made to use the minimum number of rats in an ethically responsible manner.
Overnight-fasted SD rats were divided into 3 groups (n = 6). Group I, ASPM solution; Group II, LP-ASPM; Group III, LP-PD-2. All the groups received ASPM at a dose of 5 mg/kg body weight orally. Blood was drawn from the retro-orbital sinus at different time points between 0 and 48 h in tubes containing disodium EDTA. Blood was centrifuged at 5000 rpm for 10 min, and the clear plasma from the supernatant layer was collected and stored at -80 °C until analysis. The amount of ASPM in the samples was analysed by RP-HPLC. The detailed bioanalytical method development for the quantification of ASPM in rat plasma is given in Supplementary information; Section S3; Table S4; Figure S7. Pharmacokinetic parameters were calculated using PK Solutions 2.0™ (Summit Research Services, Montrose, Colorado).

[2] = Ex vivo drug permeation, everted ileum sac model; assay type: in vitro ADME, Sprague–Dawley (SD) rats; details: male, Sprague-Dawley, pH 7.4, everted rat ileum sac
Method: as §1
The absorption of the drug through the ileum portion of the small intestine was determined by an ex vivo drug permeation study using an everted ileum sac model. Overnight-fasted SD rats were sacrificed humanely, and the small intestine was isolated (≈ 10 cm). The isolated ileum segment was carefully everted and pushed completely over a capillary tube. The ileum was then tied between the cannulated parts of the U-shaped glass tube, which was used as a perfusion apparatus. The perfusion apparatus was then placed in a beaker containing 450 mL of Ringer’s solution (pH 7.4). The medium was stirred using magnetic beads at 100 rpm and 37 °C. Plain ASPM solution/liposomal dispersion was added to the beaker. The samples were withdrawn from the cannulated arm of the U tube at predetermined time points of 1, 2 and 3 h, and the same volume of the withdrawn sample was replaced by the addition of fresh Ringer’s solution. The amount of drug absorbed was calculated by analysing the samples using HPLC[22].

[3] = cited from earlier work
Caco-2 cells = test system: Caco-2 cells; design: method as in PMID 30874464, PMID 32228915, doi:10.1016/j.jddst.2022.103275; details: highest concentration of ASPM tested; cited from earlier work
Raji B cells = test system: Raji B cells; design: method as in PMID 30874464, PMID 32228915, doi:10.1016/j.jddst.2022.103275; details: highest concentration of ASPM tested; cited from earlier work
[4] = test system: L-DOPA-carbidopa-induced hyper locomotor activity; test: Psychostimulant-induced hyperactivity model, locomotor activity (LMA) test; assay type: in vivo, Sprague–Dawley (SD) rats; details: L-DOPA-carbidopa-treated rats, ASPM dose 5 mg/kg p.o.
Method: as §1
The pharmacodynamic study was performed using an induced locomotor activity (LMA) test with a psychostimulant-induced hyperactivity model. The ability of the optimized formulation to reverse hyperactivity in rats was studied. […] A digital Actophotometer (Ikon Instruments, New Delhi, India) was used to assess LMA at 5 min intervals at 1, 2 and 3 h. The LMA was assessed after 1 h of L-DOPA-carbidopa administration in group II. ASPM was administered after 30 min of L-DOPA-carbidopa administration, and LMA was noted after 30 min of ASPM administration in groups III, IV and V.

[5] = design: method as in PMID 30669881; details: pure ASPM dispersion, intestinal fluid (phosphate buffer pH 6.8), within 180 min; cited from earlier work
[6] = male, Sprague-Dawley, rat, plasma, po

- t1/2 ([1]; 5 mg/kg): 25.52 ± 2.15 h
- half-life ([1]; male, Sprague-Dawley, rat, plasma, po, 5 mg/kg): 25.2 ± 2.15 h
- AUC(0-inf) [1, 6]: 3640 ± 347 ng·h/mL
- AUC(0-t) [1, 6]: 2660 ± 221 ng·h/mL
- Cmax [1, 6]: 131 ± 7.01 ng/mL
- MRT [1, 6]: 36 ± 3.16 h
- Tmax [1, 6]: 1 h
- k el [1, 6]: 7.53e-06 s⁻¹
- Papp at 1 h ([2]; 1 h): 291 ± 26 ×10⁻⁶ cm/s
- Papp at 2 h ([2]; 2 h): 231 ± 31 ×10⁻⁶ cm/s
- Papp at 3 h ([2]; 3 h): 206 ± 30 ×10⁻⁶ cm/s
SMILES: CN1CC2c3ccccc3Oc3ccc(Cl)cc3C2C1 (stereo not shown) [ASPM, Asenapine maleate]
- bioavailability ([3]; marketed fast-dissolving sublingual tablet, ref 7 (printed at next sentence)): 35%
- oral bioavailability ([3]; oral administration): < 2%
- cells remaining viable (Caco-2 cells): more than 80%
- cells remaining viable (Raji B cells): more than 80%
- Locomotor counts ([4]; 1 h): 121 ± 17*^$
- Locomotor counts ([4]; 2 h): 118 ± 18*^$
- Locomotor counts ([4]; 3 h): 110 ± 15*^$
- drug release [5]: more than 90%
